Source: the C3SDB collision cross section collection
“And” between values parts separate entries of the source, which are not always exact repeats. Identical values can stand only once. Counter-ions that a name gives are not always drawn.

Conditions: instrument: DT, single field, calibrated with ESI Low Concentration Tuning Mix (Agilent)

collision cross section (N2) ([M+H]+) | collision cross section (N2) ([M+Na]+) | collision cross section (N2) ([M-H]-) | collision cross section (N2) ([M+K]+) [Å²] | collision cross section (N2) ([M+Na-2H]-) [Å²] | Structure (SMILES)
199.7 Å² | 202.2 Å² | 202.2 Å² | 208 |  | C[C@H](CCC(=O)NCC(=O)O)[C@H]1CC[C@H]2[C@@H]3[C@H](O)C[C@@H]4C[C@H](O)CC[C@]4(C)[C@H]3C[C@H](O)[C@]12C [GLYCOCHOLATE]
 |  | 143.3 Å² |  |  | O=S(=O)(O)Oc1c[nH]c2ccccc12 [INDOXYL SULFATE]
 | 140.9 Å² |  |  |  | CC(=O)N[C@@H](CS)C(=O)O [N-ACETYLCYSTEINE]
179.2 Å² | 182.4 Å² | 184.5 Å² |  | 183.2 | NC(=O)[C@@H]1CCCN1C(=O)[C@H](Cc1cnc[nH]1)NC(=O)[C@@H]1CCC(=O)N1 [THYROTROPIN RELEASING HORMONE]
193.6 Å² | 197 Å² | 189.2 Å² |  | 182.8 | O=c1nc[nH]c2c1ncn2[C@@H]1O[C@H](COP(=O)(O)OP(=O)(O)OP(=O)(O)O)[C@@H](O)[C@H]1O [INOSINE TRIPHOSPHATE]
 |  | 113.8 Å² |  |  | O=C(O)c1ccc[nH]1 [PYRROLE-2-CARBOXYLATE]
 | 146.2 Å² | 136 Å² |  |  | COc1cc(CC(=O)O)ccc1O [HOMOVANILLATE]
132.3 Å² |  | 126.6 Å² |  |  | O=C(O)c1cccnc1C(=O)O [QUINOLINATE]
136 Å² |  | 132 Å² |  |  | CCCC[C@H](N)C(=O)O [NORLEUCINE]
166 Å² |  |  |  |  | NC(=O)c1ccc[n+]([C@@H]2O[C@H](COP(=O)([O-])O)[C@@H](O)[C@H]2O)c1 [NICOTINAMIDE MONONUCLEOTIDE]
145.9 Å² | 145.7 Å² |  |  | 145.8 | N[C@@H](CCOC(=O)CCC(=O)O)C(=O)O [O-SUCCINYL-HOMOSERINE]
 |  | 175.6 Å² |  |  | CCCCCCCCCCC/C=C\CCCCC(=O)[O-] [PETROSELINATE]
 | 150.1 Å² | 142.6 Å² |  |  | CSCC[C@H](NC(C)=O)C(=O)O [N-ACETYLMETHIONINE]
 | 235.1 Å² | 224.1 Å² |  |  | OC[C@H]1O[C@H](OC[C@H]2O[C@H](OC[C@H]3O[C@H](O[C@]4(CO)O[C@H](CO)[C@@H](O)[C@@H]4O)[C@H](O)[C@@H](O)[C@@H]3O)[C@H](O)[C@@H](O)[C@H]2O)[C@H](O)[C@@H](O)[C@H]1O [STACHYOSE]
 | 137.1 Å² | 127.2 Å² |  |  | O=P(O)(O)OCC(O)CO (stereo not given) [GLYCEROL 3-PHOSPHATE]
162 Å² | 173.3 Å² | 158.3 Å² | 173 | 161.9 | O=c1[nH]c(=O)c2ncn([C@@H]3O[C@H](CO)[C@@H](O)[C@H]3O)c2[nH]1 [XANTHOSINE]
 | 133 Å² |  |  |  | CC(=O)NCC(=O)O [N-ACETYLGLYCINE]
 | 204.8 Å² | 196.9 Å² |  |  | CCCCCCCCCCCCCCCCCCCCCCC(=O)[O-] [TRICOSANOATE]
 | 204.4 Å² | 197.5 Å² |  |  | CCCCCCCC/C=C\CCCCCCCCCCCCCC(=O)[O-] [NERVONATE]
216.2 Å² | 218.1 Å² | 223.9 Å² |  | 228.2 | CC(=O)NC1C(OP(=O)(O)OP(=O)(O)OCC2OC(n3ccc(=O)[nH]c3=O)C(O)C2O)OC(CO)C(O)C1O (stereo not given) [URIDINE DIPHOSPHATE-N-ACETYLGALACTOSAMINE]
129.8 Å² | 145.1 Å² | 127.7 Å² |  |  | CSc1ncnc2nc[nH]c12 [THIOPURINE S-METHYLETHER]
 |  | 123.2 Å² |  |  | NCCOP(=O)(O)O [O-PHOSPHOETHANOLAMINE]
131.4 Å² | 142.8 Å² | 129 Å² |  |  | Cc1ncc(CO)c(C=O)c1O [PYRIDOXAL]

More lines, now with the values behind:

Structure (SMILES) | collision cross section (N2) ([M+H]+) | collision cross section (N2) ([M+Na]+) | collision cross section (N2) ([M-H]-) | collision cross section (N2) ([M+K]+) [Å²] | collision cross section (N2) ([M+Na-2H]-) [Å²]
Nc1ncnc2c1ncn2[C@@H]1O[C@@H]2COP(=O)(O)O[C@H]2[C@H]1O [CYCLIC AMP] | 172.6 Å² and 176.8 Å² | 181 Å² and 188.6 Å² and 188.8 Å² | 171.8 Å² and 172 Å² |  | 
CC(O)(CC(=O)O)CC(=O)O [3-HYDROXYMETHYLGLUTARATE] |  | 135.9 Å² | 126.5 Å² |  | 
NC[C@H](O)c1ccc(O)cc1 [P-OCTOPAMINE] |  | 147.3 Å² |  |  | 
C[C@@H]1NCCc2cc(O)c(O)cc21 [SALSOLINOL] | 142.7 Å² |  | 139.4 Å² |  | 
Cc1cnc(=O)[nH]c1N [5-METHYLCYTOSINE] | 121 Å² and 125.4 Å² | 135.5 Å² |  |  | 
Nc1ncnc2c1ncn2[C@@H]1O[C@H](COP(=O)(O)O)[C@@H](O)[C@H]1O [ADENOSINE-MONOPHOSPHATE] |  |  | 173.1 Å² |  | 179.5
O=c1cccc(O)[nH]1 [2,6-DIHYDROXYPYRIDINE] |  |  | 113.8 Å² |  | 
OCc1cccc(O)c1 [3-HYDROXYBENZYL ALCOHOL] |  |  | 122.3 Å² |  | 
O=c1ccn([C@H]2C[C@H](O)[C@@H](COP(=O)(O)OP(=O)(O)OP(=O)(O)O)O2)c(=O)[nH]1 [DEOXYURIDINE TRIPHOSPHATE] |  | 185.3 Å² | 178.6 Å² |  | 188.9
NCC[Se][Se]CCN [SELENOCYSTAMINE] | 135.6 Å² | 138.6 Å² |  |  | 
CC(C)(COP(=O)(O)OP(=O)(O)OC[C@H]1O[C@@H](n2cnc3c(N)ncnc32)[C@H](O)[C@@H]1OP(=O)(O)O)[C@@H](O)C(=O)NCCC(=O)NCCS [COENZYME A] | 241.4 Å² | 255.5 Å² | 244.4 Å² |  | 246.2
Cc1ncc(CO)c(C(=O)O)c1O [4-PYRIDOXATE] | 135.5 Å² | 150.2 Å² | 130.6 Å² | 147.4 | 
O=C1O[C@H]([C@@H](O)CO)C(O)=C1O [ASCORBATE] |  | 141.6 Å² | 127.7 Å² |  | 
Nc1ncnc2c1ncn2[C@H]1C[C@H](O)[C@@H](COP(=O)(O)OP(=O)(O)OP(=O)(O)O)O1 [DEOXYADENOSINE TRIPHOSPHATE] | 194.8 Å² | 202 Å² | 186.5 Å² |  | 185.9
O=C(CO)[C@@H](O)[C@H](O)[C@H](O)COP(=O)(O)O [FRUCTOSE 6-PHOSPHATE] |  | 154.4 Å² | 144.1 Å² |  | 154.9
Cn1cnc(N)c2ncnc1-2 [3-METHYLADENINE] | 126.3 Å² |  |  |  | 
